According to patent publication US20140171520A1, “HIGHLY SOLUBLE STEVIA SWEETENER” (priority 2011, published 2014):
Read-outs that look alike come from different tables or passages of the source.

Legend:
[1] = at 50° C.; U.S. patent application Ser. No. 12/612,374; cited from earlier work
[2] = Solubility in reverse osmosis (RO) water at room temperature; format: physicochemical; settings: g per 100 g solvent
Method: Hereinafter, unless specified otherwise the solubility of material is determined in reverse osmosis (RO) water at room temperature. Where the solubility is expressed as “%” it to be understood as number of grams of material soluble in 100 grams of solvent.

[3] = cited from earlier work

In the case of `C=C1C[C@@]23CC[C@H]4[C@@](C)(CCC[C@@]4(C)C(=O)O[C@@H]4O[C@H](CO)[C@@H](O)[C@H](O)[C@H]4O[C@@H]4O[C@H](CO)[C@@H](O)[C@H](O)[C@H]4O)[C@@H]2CC[C@]1(O[C@@H]1O[C@H](CO)[C@@H](O)[C@H](O[C@@H]2O[C@H](CO)[C@@H](O)[C@H](O)[C@H]2O)[C@H]1O[C@@H]1O[C@H](CO)[C@@H](O)[C@H](O)[C@H]1O)C3` [anhydrous form of Reb D, Rebaudioside D, reference compound], the solubility [1] is given as “about 0.15%”.

`C=C1C[C@@]23CC[C@H]4[C@@](C)(CCC[C@@]4(C)C(=O)O[C@@H]4O[C@H](CO)[C@@H](O)[C@H](O)[C@H]4O)[C@@H]2CC[C@]1(O[C@@H]1O[C@H](CO)[C@@H](O)[C@H](O[C@@H]2O[C@H](CO)[C@@H](O)[C@H](O)[C@H]2O)[C@H]1O[C@@H]1O[C@H](CO)[C@@H](O)[C@H](O)[C@H]1O)C3` [Reb A, Rebaudioside A] gave a water solubility [2] of over 5% and a water solubility ([2]; listed as rebaudioside A) of 5.5%.

For `C=C1C[C@@]23CC[C@H]4[C@@](C)(CCC[C@@]4(C)C(=O)O[C@@H]4O[C@H](CO)[C@@H](O)[C@H](O)[C@H]4O)[C@@H]2CC[C@]1(O[C@@H]1O[C@H](CO)[C@@H](O)[C@H](O[C@@H]2O[C@H](CO)[C@@H](O)[C@H](O)[C@H]2O)[C@H]1O[C@@H]1O[C@H](CO)[C@@H](O)[C@H](O)[C@H]1O)C3` [Form 2, Rebaudioside A], the “Rate of dissolution in H2O at 25° C.” value ([3]; in 5 minutes) is listed as “(<30% in 5”.

Rebaudioside B [Reb B] gave a water solubility [2] of 0.01%.

For `C=C1C[C@@]23CC[C@H]4[C@@](C)(CCC[C@@]4(C)C(=O)O[C@@H]4O[C@H](CO)[C@@H](O)[C@H](O)[C@H]4O)[C@@H]2CC[C@]1(O[C@@H]1O[C@H](CO)[C@@H](O)[C@H](O[C@@H]2O[C@H](CO)[C@@H](O)[C@H](O)[C@H]2O)[C@H]1O[C@@H]1O[C@H](CO)[C@@H](O)[C@H](O)[C@H]1O)C3` [Form 4, Rebaudioside A], the “Rate of dissolution in H2O at 25° C.” value ([3]; in 5 minutes) is given as “High (>35%”.

In the case of `C=C1C[C@@]23CC[C@H]4[C@@](C)(CCC[C@@]4(C)C(=O)O[C@@H]4O[C@H](CO)[C@@H](O)[C@H](O)[C@H]4O)[C@@H]2CC[C@]1(O[C@@H]1O[C@H](CO)[C@@H](O)[C@H](O[C@@H]2O[C@H](CO)[C@@H](O)[C@H](O)[C@H]2O)[C@H]1O[C@@H]1O[C@H](CO)[C@@H](O)[C@H](O)[C@H]1O)C3` [Form 1, Rebaudioside A], the “solubility among Reb A polymorph forms” value ([3]; Prakash et al. 2008) is listed as “lowest solubility” and the “Rate of dissolution in H2O at 25° C.” value ([3]; in 60 minutes) is listed as “(<0.2% in”.

In the case of `C=C1C[C@@]23CC[C@H]4[C@@](C)(CCC[C@@]4(C)C(=O)O[C@@H]4O[C@H](CO)[C@@H](O)[C@H](O)[C@H]4O)[C@@H]2CC[C@]1(O[C@@H]1O[C@H](CO)[C@@H](O)[C@H](O[C@@H]2O[C@H](CO)[C@@H](O)[C@H](O)[C@H]2O)[C@H]1O[C@@H]1O[C@H](CO)[C@@H](O)[C@H](O)[C@H]1O)C3` [Form 3, Rebaudioside A], the “Rate of dissolution in H2O at 25° C.” value ([3]; in 5 minutes) is given as “High (>30%”.
